Here are results for seven compounds from paper PMC4390550 (Journal of the American Chemical Society, 2015).

The subject of data set [1] is aspartate aminotransferase. To be noted: cited from earlier work.
Data set [2] deals with GABA-AT. To be noted: aromatization mechanism; cited from earlier work.
The subject of data set [3] is alanine aminotransferase. The following applies: cited from earlier work.
Data set [4] deals with infantile spasms. To be noted: cited from earlier work.
Data set [5] deals with T1, GABA-AT (Sus scrofa, UniProt P80147). Nature of the data set: Time-dependent inhibition. It is filed as biochemical, pig. To be noted: preliminary in vitro results.
T1 sequence (P80147 29-500): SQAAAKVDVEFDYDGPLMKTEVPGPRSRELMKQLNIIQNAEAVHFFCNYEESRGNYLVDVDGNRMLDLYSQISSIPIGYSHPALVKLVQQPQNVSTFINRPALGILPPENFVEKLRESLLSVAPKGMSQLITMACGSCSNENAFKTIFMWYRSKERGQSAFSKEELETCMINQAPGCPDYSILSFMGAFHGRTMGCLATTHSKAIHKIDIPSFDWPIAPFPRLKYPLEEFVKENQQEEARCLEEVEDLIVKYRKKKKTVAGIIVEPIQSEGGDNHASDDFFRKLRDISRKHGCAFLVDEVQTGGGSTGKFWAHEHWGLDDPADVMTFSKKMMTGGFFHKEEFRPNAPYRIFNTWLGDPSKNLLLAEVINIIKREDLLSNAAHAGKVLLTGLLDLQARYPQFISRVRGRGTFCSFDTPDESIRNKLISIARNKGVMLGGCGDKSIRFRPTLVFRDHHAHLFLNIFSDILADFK
In data set [6] the target is T1, GABA-AT. Nature of the data set: Inhibition of GABA-AT, coupled assay with SSDH, Ki by Cheng-Prusoff. It is filed as biochemical, pig.

Where a name gives a salt, the structure may show the parent alone.

With `N[C@H]1C=C(C(=O)O)SC1` [(S)-4-Amino-4,5-dihydro-2-thiophenecarboxylic acid], the “inactivation of aspartate aminotransferase (in words)” value in data set [1] was “inactivator”. Also, in data set [2], the “inactivation of GABA-AT (in words)” value is listed as “known inactivator”.

Consider `N[C@H]1C[C@@H](C(=O)O)CC1=C(F)F` [Compound 16], for which the “inactivation or inhibition of alanine aminotransferase” value in data set [3] is “did not inactivate or inhibit”. For the same compound, in data set [4] (compared with vigabatrin), the margin of safety entry is on record as “much larger margin of safety than vigabatrin”. For the same compound, in data set [4] (rat), the “doses that suppressed spasms” value was 0.1 to 1 mg/kg/day, the “effective doses lower than those for vigabatrin” value is given as greater than 100 fold and the “time spasms suppression stayed effective” value is on record as 3 days. The “inactivation or inhibition of aspartate aminotransferase” value in data set [1] was “did not inactivate or inhibit”.

As for `Cl.N[C@@H]1CS[C@H](C(=O)O)C1` [Compound 17, (2S,4S)-4-Aminotetrahydrothiophene-2-carboxylic acid hydrochloride], the “inactivation of GABA-AT (in words)” value in data set [5] was “potent inactivators”.

`Cl.N[C@@H]1CS[C@@H](C(=O)O)C1` [Compound 18, (2R,4S)-4-Aminotetrahydrothiophene-2-carboxylic acid hydrochloride]: in data set [5], the “inactivation of GABA-AT (in words)” value is on record as “potent inactivators”.

Broadly, the Ki is a dissociation constant, usually derived from enzyme kinetics or from competition with a known ligand. A higher Ki goes with lower affinity. In data set [6] (reversible inhibition, pH 8.5, 25 °C, 10 mM GABA), `N[C@H]1CC(C(=O)O)S(=O)(=O)C1` (stereo partly drawn) [Compound 19, (4S)-4-Aminotetrahydrothiophene-2-carboxylic acid 1,1-dioxide hydrochloride] gave a Ki of 3.2 ± 0.7 mM.

Consider `N[C@@H]1CC[C@H](C(=O)O)C1` [Compound 39, (1S,3R)-3-aminocyclopentane-1-carboxylic acid], for which, in data set [6] (preliminary in vitro results), the “reversible inhibition of GABA-AT (in words)” value was “good competitive inhibitor”. Further, in data set [5], the “inactivation of GABA-AT (in words)” value is reported as “not an inactivator”.

Consider `C=CC(N)CCC(=O)O` (centres unmarked) [vigabatrin], for which the “time spasms suppression stayed effective” value in data set [4] (rat) is given as 1 days.
